Earlier results as cited in patent publication US20160375049A1, “COMPOSITIONS” (GLOBALACORN LTD, priority 2013, published 2016).

Tests used:
[1] = tested on: acute noxious stimulation; conditions: in vivo
P2X3 receptors = target: T1, P2X3 receptors (Homo sapiens, UniProt P56373)
T1 sequence (P56373 1-397): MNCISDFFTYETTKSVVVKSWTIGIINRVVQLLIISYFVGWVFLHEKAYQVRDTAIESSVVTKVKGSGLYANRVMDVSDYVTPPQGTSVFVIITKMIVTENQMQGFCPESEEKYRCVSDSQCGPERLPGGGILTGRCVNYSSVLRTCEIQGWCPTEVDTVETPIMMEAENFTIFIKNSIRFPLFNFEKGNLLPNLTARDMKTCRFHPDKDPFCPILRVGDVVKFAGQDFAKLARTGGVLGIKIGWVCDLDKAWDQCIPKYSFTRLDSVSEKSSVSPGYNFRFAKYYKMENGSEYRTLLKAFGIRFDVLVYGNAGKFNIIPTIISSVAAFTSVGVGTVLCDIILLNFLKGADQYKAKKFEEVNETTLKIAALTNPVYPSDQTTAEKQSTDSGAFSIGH

persistent pain = conditions: in vivo
[2] = tested on: inflammatory and neuropathic pain models; conditions: systemic administration
nociception = conditions: in vivo

Row | Structure (SMILES) | activity in models of acute noxious stimulation [1] | binding to P2X3 receptors, concentration range (P2X3 receptors) | persistent pain in formalin and acetic acid-induced abdominal constriction tests (persistent pain) | nociception in inflammatory and neuropathic pain models [2] | anti-nociception in animal models (nociception)
1 | O=C(O)c1cc(C(=O)O)c(C(=O)N(Cc2cccc(Oc3ccccc3)c2)[C@H]2CCCc3ccccc32)cc1C(=O)O [A-317491] | generally inactive | micromolar range | effectively blocked persistent pain | effectively reduced nociception | –
2 | COc1cc(Cc2cnc(N)nc2N)c(C(C)C)cc1OC [RO-3] | – | – | – | – | induce anti-nociception
